# Test system: T1, Kras G12D protein / SOS1 exchange domain
# T1 construct: Cytoskeleton, Inc. (SOS1 exchange domain only) GE02
# Assay: Kras-SOS exchange assay (MANT-GDP)
# Format: biochemical
# Conditions: for Relative fluorescence intensity: PhP072 500 uM, no irradiation
# Experimental: MANT-GDP loading assay: Kras^G12D protein was first buffer exchanged into low magnesium buffer (20 mM HEPES-NaOH (pH 7.5), 50 mM NaCl, 0.5 mM MgCl2) using a NAP5 column (catalog no.: 17-0583-1, Cytiva). The proteins were then incubated with 20-fold molar excess of N-methylanthraniloyl (MANT)-GDP (catalog no.: 69244, Sigma-Aldrich) in loading buffer (50 mM NaCl, 20 mM HEPES-NaOH [pH 7.5], 0.5 mM MgCl2, 10 mM EDTA, and 1 mM Dithiothreitol (DTT)) in a total volume of 200 μL at 20 °C for 90 min. The reaction was stopped by adding MgCl2 to a final concentration of 10 mM, then incubated at 20 °C for 30 min. The unbound MANT-GDP was removed using the NAP-5 column equilibrated with nucleotide exchange buffer (40 mM HEPES-NaOH (pH 7.5), 50 mM NaCl, 10 mM MgCl2, 2 mM DTT).
# MANT-GDP exchange assay: First the MANT-GDP bound Kras G12D protein (in a final 1 μM molar concentration) was preincubated with the inhibitor molecules for 60 min. After the preincubation the samples were exposed to UV light for 10 min with a wavelength of 366 nm. The UV-treated MANT-GDP Kras-inhibitor mix was loaded into a black 384 well microplate. The nucleotide exchange reaction was initiated by adding 100 fold molar excess of GppNHp (catalog no.: G0635, Sigma-Aldrich), a non-hydrolyzable GTP analog and the SOS1 exchange domain (catalog no.: GE02, Cytoskeleton, Inc.) protein in 0.5 μM final concentration. The change in fluorescence intensity was measured every 30 s in room temperature for 60 min on an EnSpire plate reader (PerkinElmer, Inc.). The measured fluorescence values were fitted to a single exponential function by using GraphPad Prism 8 software.
smiles,measurement,setting,value
"Cc1ncc(CO)c(CNC(=O)CCC2(C)N=N2)c1O [PhP072, Cc1ncc(CO)c(c1O)CNC(=O)CCC2(C)N=N2]",Relative fluorescence intensity,0 sec,1
same,Relative fluorescence intensity,30 sec,1.013
same,Relative fluorescence intensity,60 sec,0.9959
same,Relative fluorescence intensity,90 sec,0.9972
same,Relative fluorescence intensity,120 sec,0.9718
same,Relative fluorescence intensity,210 sec,0.9336
same,Relative fluorescence intensity,240 sec,0.9413
same,Relative fluorescence intensity,270 sec,0.9207
same,Relative fluorescence intensity,300 sec,0.9231
same,Relative fluorescence intensity,330 sec,0.889
same,Relative fluorescence intensity,360 sec,0.9144
same,Relative fluorescence intensity,390 sec,0.8755
same,Relative fluorescence intensity,420 sec,0.8829
same,Relative fluorescence intensity,450 sec,0.8817
same,Relative fluorescence intensity,480 sec,0.8573
same,Relative fluorescence intensity,510 sec,0.8562
same,Relative fluorescence intensity,540 sec,0.8393
same,Relative fluorescence intensity,570 sec,0.8479
same,Relative fluorescence intensity,600 sec,0.8268
same,Relative fluorescence intensity,630 sec,0.8298
same,Relative fluorescence intensity,660 sec,0.82
same,Relative fluorescence intensity,690 sec,0.8367
same,Relative fluorescence intensity,720 sec,0.8123
same,Relative fluorescence intensity,750 sec,0.8188
same,Relative fluorescence intensity,780 sec,0.7895
same,Relative fluorescence intensity,810 sec,0.8173
same,Relative fluorescence intensity,840 sec,0.8044
same,Relative fluorescence intensity,870 sec,0.8078
same,Relative fluorescence intensity,900 sec,0.796
same,Relative fluorescence intensity,930 sec,0.7898
same,Relative fluorescence intensity,960 sec,0.7738
same,Relative fluorescence intensity,990 sec,0.7911
same,Relative fluorescence intensity,1020 sec,0.7808
same,Relative fluorescence intensity,1050 sec,0.7917
same,Relative fluorescence intensity,1080 sec,0.7685
same,Relative fluorescence intensity,1110 sec,0.7829
same,Relative fluorescence intensity,1140 sec,0.763
same,Relative fluorescence intensity,1170 sec,0.7869
same,Relative fluorescence intensity,1200 sec,0.7802
same,Relative fluorescence intensity,1230 sec,0.7626
same,Relative fluorescence intensity,1260 sec,0.7487
same,Relative fluorescence intensity,1290 sec,0.7649
same,Relative fluorescence intensity,1320 sec,0.7515
same,Relative fluorescence intensity,1350 sec,0.7769
same,Relative fluorescence intensity,1380 sec,0.7498
same,Relative fluorescence intensity,1410 sec,0.7689
same,Relative fluorescence intensity,1440 sec,0.7375
same,Relative fluorescence intensity,1470 sec,0.7324
same,Relative fluorescence intensity,1500 sec,0.7377
same,Relative fluorescence intensity,1530 sec,0.7512
same,Relative fluorescence intensity,1560 sec,0.7561
same,Relative fluorescence intensity,1590 sec,0.7642
same,Relative fluorescence intensity,1620 sec,0.7532
same,Relative fluorescence intensity,1650 sec,0.7322
same,Relative fluorescence intensity,1680 sec,0.7337
same,Relative fluorescence intensity,1710 sec,0.7447
same,Relative fluorescence intensity,1740 sec,0.7262
same,Relative fluorescence intensity,1770 sec,0.7004
same,Relative fluorescence intensity,1800 sec,0.7223
same,Relative fluorescence intensity,1830 sec,0.7275
same,Relative fluorescence intensity,1860 sec,0.7142
same,Relative fluorescence intensity,1890 sec,0.7142
same,Relative fluorescence intensity,1920 sec,0.7251
same,Relative fluorescence intensity,1950 sec,0.7143
same,Relative fluorescence intensity,1980 sec,0.7167
same,Relative fluorescence intensity,2010 sec,0.7199
same,Relative fluorescence intensity,2040 sec,0.7182
same,Relative fluorescence intensity,2070 sec,0.7197
same,Relative fluorescence intensity,2100 sec,0.7234
same,Relative fluorescence intensity,2130 sec,0.7107
same,Relative fluorescence intensity,2160 sec,0.709
same,Relative fluorescence intensity,2190 sec,0.6857
same,Relative fluorescence intensity,2220 sec,0.7212
same,Relative fluorescence intensity,2250 sec,0.7309
same,Relative fluorescence intensity,2280 sec,0.698
same,Relative fluorescence intensity,2310 sec,0.6941
same,Relative fluorescence intensity,2340 sec,0.715
same,Relative fluorescence intensity,2370 sec,0.7148
same,Relative fluorescence intensity,2400 sec,0.6907
same,Relative fluorescence intensity,2430 sec,0.6865
same,Relative fluorescence intensity,2460 sec,0.6802
same,Relative fluorescence intensity,2490 sec,0.7113
same,Relative fluorescence intensity,2520 sec,0.7022
same,Relative fluorescence intensity,2550 sec,0.6719
same,Relative fluorescence intensity,2580 sec,0.6958
same,Relative fluorescence intensity,2910 sec,0.6843
same,Relative fluorescence intensity,2940 sec,0.6708
same,Relative fluorescence intensity,2970 sec,0.6872
same,Relative fluorescence intensity,3000 sec,0.6826
same,Relative fluorescence intensity,3030 sec,0.6877
same,Relative fluorescence intensity,3060 sec,0.6798
same,Relative fluorescence intensity,3090 sec,0.6889
same,Relative fluorescence intensity,3120 sec,0.6845
same,Relative fluorescence intensity,3150 sec,0.6654
same,Relative fluorescence intensity,3180 sec,0.6759
same,Relative fluorescence intensity,3210 sec,0.6861
same,Relative fluorescence intensity,3240 sec,0.6538
same,Relative fluorescence intensity,3270 sec,0.6954
same,Relative fluorescence intensity,3300 sec,0.6785
same,Relative fluorescence intensity,3330 sec,0.6776
same,"normalized signal, Kras-SOS exchange (Figure 4c PhP072 irradiation)","Php072 500 uM, irradiation, time 0 sec",1

# Reference: publication PMC11292009, “Mapping protein binding sites by photoreactive fragment pharmacophores” (Communications Chemistry, 2024)
